# Assay: Absorbance and fluorescence emission spectra (SpectraMax M2)
# Type: physicochemical
# Conditions: MKAC compound library; absorbance maximum
# In short: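 Absorbance and emission maxima measured on a SpectraMax M2 spectrophotometer, which also gave quantum yield data; analysis in GraphPrism.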
row,Compound,λmax Abs. (nm)
1,CC(=O)Nc1ccc(C2=C3C=CC(N(C)Cc4ccccc4)=[N+]3[B-](F)(F)n3c2ccc3-n2cc(CN(C)Cc3ccccc3)nn2)cc1 [MKAC195-18],465 nm
2,CC(=O)Nc1ccc(C2=C3C=CC(N(C)Cc4ccccc4)=[N+]3[B-](F)(F)n3c2ccc3-n2cc(CCc3ccccc3)nn2)cc1 [MKAC195-19],467 nm
3,CC(=O)Nc1ccc(C2=C3C=CC(N(C)Cc4ccccc4)=[N+]3[B-](F)(F)n3c2ccc3-n2cc(CC(C)C)nn2)cc1 [MKAC195-43],466 nm
4,CCCc1cn(-c2ccc3n2[B-](F)(F)[N+]2=C(N(C)Cc4ccccc4)C=CC2=C3c2ccc(NC(C)=O)cc2)nn1 [MKAC195-48],467 nm
5,CC(=O)Nc1ccc(C2=C3C=CC(N(C)Cc4ccccc4)=[N+]3[B-](F)(F)n3c2ccc3-n2cc(CO)nn2)cc1 [MKAC195-70],464 nm
6,CC(=O)Nc1ccc(C2=C3C=CC(N4CCCC4)=[N+]3[B-](F)(F)n3c2ccc3-n2cc(C3CC3)nn2)cc1 [MKAC215-4],462 nm
7,CC(=O)Nc1ccc(C2=C3C=CC(N4CCCC4)=[N+]3[B-](F)(F)n3c2ccc3-n2cc(C3CCCC3)nn2)cc1 [MKAC215-5],463 nm
8,CC(=O)Nc1ccc(C2=C3C=CC(N4CCCC4)=[N+]3[B-](F)(F)n3c2ccc3-n2cc(CC3CCCCC3)nn2)cc1 [MKAC215-8],462 nm
9,CC(=O)Nc1ccc(C2=C3C=CC(N4CCCC4)=[N+]3[B-](F)(F)n3c2ccc3-n2cc(CN(C)Cc3ccccc3)nn2)cc1 [MKAC215-18],461 nm
10,CC(=O)Nc1ccc(C2=C3C=CC(N4CCCC4)=[N+]3[B-](F)(F)n3c2ccc3-n2cc(CCc3ccccc3)nn2)cc1 [MKAC215-19],462 nm
11,CC(=O)Nc1ccc(C2=C3C=CC(N4CCCC4)=[N+]3[B-](F)(F)n3c2ccc3-n2cc(CC(C)C)nn2)cc1 [MKAC215-43],461 nm
12,CCCc1cn(-c2ccc3n2[B-](F)(F)[N+]2=C(N4CCCC4)C=CC2=C3c2ccc(NC(C)=O)cc2)nn1 [MKAC215-48],461 nm
13,CC(=O)Nc1ccc(C2=C3C=CC(N4CCCC4)=[N+]3[B-](F)(F)n3c2ccc3-n2cc(CO)nn2)cc1 [MKAC215-70],461 nm
14,CCCC(C)c1cn(-c2ccc3n2[B-](F)(F)[N+]2=C(NCc4cc(F)cc(F)c4)C=CC2=C3c2ccc(NC(C)=O)cc2)nn1 (stereo not drawn) [MKAC412-3],466 nm
15,CC(=O)Nc1ccc(C2=C3C=CC(NCc4cc(F)cc(F)c4)=[N+]3[B-](F)(F)n3c2ccc3-n2cc(C3CC3)nn2)cc1 [MKAC412-4],466 nm
16,CC(=O)Nc1ccc(C2=C3C=CC(NCc4cc(F)cc(F)c4)=[N+]3[B-](F)(F)n3c2ccc3-n2cc(CC3CCCCC3)nn2)cc1 [MKAC412-8],467 nm

# Same assay, conditions: MKAC compound library; fluorescence emission maximum
row,Compound,λmax Em. (nm)
1,CC(=O)Nc1ccc(C2=C3C=CC(N(C)Cc4ccccc4)=[N+]3[B-](F)(F)n3c2ccc3-n2cc(CN(C)Cc3ccccc3)nn2)cc1 [MKAC195-18],575 nm
2,CC(=O)Nc1ccc(C2=C3C=CC(N(C)Cc4ccccc4)=[N+]3[B-](F)(F)n3c2ccc3-n2cc(CCc3ccccc3)nn2)cc1 [MKAC195-19],577 nm
3,CC(=O)Nc1ccc(C2=C3C=CC(N(C)Cc4ccccc4)=[N+]3[B-](F)(F)n3c2ccc3-n2cc(CC(C)C)nn2)cc1 [MKAC195-43],580 nm
4,CCCc1cn(-c2ccc3n2[B-](F)(F)[N+]2=C(N(C)Cc4ccccc4)C=CC2=C3c2ccc(NC(C)=O)cc2)nn1 [MKAC195-48],575 nm
5,CC(=O)Nc1ccc(C2=C3C=CC(N(C)Cc4ccccc4)=[N+]3[B-](F)(F)n3c2ccc3-n2cc(CO)nn2)cc1 [MKAC195-70],579 nm
6,CC(=O)Nc1ccc(C2=C3C=CC(N4CCCC4)=[N+]3[B-](F)(F)n3c2ccc3-n2cc(C3CC3)nn2)cc1 [MKAC215-4],576 nm
7,CC(=O)Nc1ccc(C2=C3C=CC(N4CCCC4)=[N+]3[B-](F)(F)n3c2ccc3-n2cc(C3CCCC3)nn2)cc1 [MKAC215-5],574 nm
8,CC(=O)Nc1ccc(C2=C3C=CC(N4CCCC4)=[N+]3[B-](F)(F)n3c2ccc3-n2cc(CC3CCCCC3)nn2)cc1 [MKAC215-8],568 nm
9,CC(=O)Nc1ccc(C2=C3C=CC(N4CCCC4)=[N+]3[B-](F)(F)n3c2ccc3-n2cc(CN(C)Cc3ccccc3)nn2)cc1 [MKAC215-18],569 nm
10,CC(=O)Nc1ccc(C2=C3C=CC(N4CCCC4)=[N+]3[B-](F)(F)n3c2ccc3-n2cc(CCc3ccccc3)nn2)cc1 [MKAC215-19],567 nm
11,CC(=O)Nc1ccc(C2=C3C=CC(N4CCCC4)=[N+]3[B-](F)(F)n3c2ccc3-n2cc(CC(C)C)nn2)cc1 [MKAC215-43],565 nm
12,CCCc1cn(-c2ccc3n2[B-](F)(F)[N+]2=C(N4CCCC4)C=CC2=C3c2ccc(NC(C)=O)cc2)nn1 [MKAC215-48],566 nm
13,CC(=O)Nc1ccc(C2=C3C=CC(N4CCCC4)=[N+]3[B-](F)(F)n3c2ccc3-n2cc(CO)nn2)cc1 [MKAC215-70],574 nm
14,CCCC(C)c1cn(-c2ccc3n2[B-](F)(F)[N+]2=C(NCc4cc(F)cc(F)c4)C=CC2=C3c2ccc(NC(C)=O)cc2)nn1 (stereo not drawn) [MKAC412-3],561 nm
15,CC(=O)Nc1ccc(C2=C3C=CC(NCc4cc(F)cc(F)c4)=[N+]3[B-](F)(F)n3c2ccc3-n2cc(C3CC3)nn2)cc1 [MKAC412-4],562 nm
16,CC(=O)Nc1ccc(C2=C3C=CC(NCc4cc(F)cc(F)c4)=[N+]3[B-](F)(F)n3c2ccc3-n2cc(CC3CCCCC3)nn2)cc1 [MKAC412-8],562 nm

# Assay: Quantum yield measurements versus Acridine Yellow in EtOH
# Type: physicochemical
# Conditions: MKAC compound library; quantum yield
# In short: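 Fluorescence quantum yield is relative to Acridine Yellow in EtOH (Φ 0.47), with excitation at 460 nm. Integrated emission at 510–700 nm was corrected for absorbance at the excitation wavelength and for solvent refractive index.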
row,Compound,φ (%)
1,CC(=O)Nc1ccc(C2=C3C=CC(N(C)Cc4ccccc4)=[N+]3[B-](F)(F)n3c2ccc3-n2cc(CN(C)Cc3ccccc3)nn2)cc1 [MKAC195-18],1.85%
2,CC(=O)Nc1ccc(C2=C3C=CC(N(C)Cc4ccccc4)=[N+]3[B-](F)(F)n3c2ccc3-n2cc(CCc3ccccc3)nn2)cc1 [MKAC195-19],3.78%
3,CC(=O)Nc1ccc(C2=C3C=CC(N(C)Cc4ccccc4)=[N+]3[B-](F)(F)n3c2ccc3-n2cc(CC(C)C)nn2)cc1 [MKAC195-43],3.48%
4,CCCc1cn(-c2ccc3n2[B-](F)(F)[N+]2=C(N(C)Cc4ccccc4)C=CC2=C3c2ccc(NC(C)=O)cc2)nn1 [MKAC195-48],2.72%
5,CC(=O)Nc1ccc(C2=C3C=CC(N(C)Cc4ccccc4)=[N+]3[B-](F)(F)n3c2ccc3-n2cc(CO)nn2)cc1 [MKAC195-70],1.67%
6,CC(=O)Nc1ccc(C2=C3C=CC(N4CCCC4)=[N+]3[B-](F)(F)n3c2ccc3-n2cc(C3CC3)nn2)cc1 [MKAC215-4],2.35%
7,CC(=O)Nc1ccc(C2=C3C=CC(N4CCCC4)=[N+]3[B-](F)(F)n3c2ccc3-n2cc(C3CCCC3)nn2)cc1 [MKAC215-5],1.00%
8,CC(=O)Nc1ccc(C2=C3C=CC(N4CCCC4)=[N+]3[B-](F)(F)n3c2ccc3-n2cc(CC3CCCCC3)nn2)cc1 [MKAC215-8],1.17%
9,CC(=O)Nc1ccc(C2=C3C=CC(N4CCCC4)=[N+]3[B-](F)(F)n3c2ccc3-n2cc(CN(C)Cc3ccccc3)nn2)cc1 [MKAC215-18],1.54%
10,CC(=O)Nc1ccc(C2=C3C=CC(N4CCCC4)=[N+]3[B-](F)(F)n3c2ccc3-n2cc(CCc3ccccc3)nn2)cc1 [MKAC215-19],3.41%
11,CC(=O)Nc1ccc(C2=C3C=CC(N4CCCC4)=[N+]3[B-](F)(F)n3c2ccc3-n2cc(CC(C)C)nn2)cc1 [MKAC215-43],1.83%
12,CCCc1cn(-c2ccc3n2[B-](F)(F)[N+]2=C(N4CCCC4)C=CC2=C3c2ccc(NC(C)=O)cc2)nn1 [MKAC215-48],2.70%
13,CC(=O)Nc1ccc(C2=C3C=CC(N4CCCC4)=[N+]3[B-](F)(F)n3c2ccc3-n2cc(CO)nn2)cc1 [MKAC215-70],1.11%
14,CCCC(C)c1cn(-c2ccc3n2[B-](F)(F)[N+]2=C(NCc4cc(F)cc(F)c4)C=CC2=C3c2ccc(NC(C)=O)cc2)nn1 (stereo not drawn) [MKAC412-3],27.73%
15,CC(=O)Nc1ccc(C2=C3C=CC(NCc4cc(F)cc(F)c4)=[N+]3[B-](F)(F)n3c2ccc3-n2cc(C3CC3)nn2)cc1 [MKAC412-4],26.84%
16,CC(=O)Nc1ccc(C2=C3C=CC(NCc4cc(F)cc(F)c4)=[N+]3[B-](F)(F)n3c2ccc3-n2cc(CC3CCCCC3)nn2)cc1 [MKAC412-8],16.81%
